Seven molecules from patent publication EP3290438A1, “FOOD ALLERGEN EXTRACTS AND METHODS OF PRODUCING AND USING THE SAME” (CONSEJO SUPERIOR DE INVESTIGACIONES CIENTIFICAS, priority 2016, dated 2018) can be followed below.

In data set [1] the test system is IgE in sera from fish-allergic patients. The experiment in a line: Peptide array (SPOT) immunoassay, IgE binding. Also noted: species or system human. The note with it: sera from ten fish-allergic patients (groups S-I, S-II), 1/10 dilution; 10 nmol/spot. An excerpt:
It was first characterized the sequence elements to address how amyloid formation contributes to the IgE reactivity of Gad m 1. A set of 12-mer overlapping synthetic peptides with an offset of 2 that correspond to the sequence of Gad m 1 was used in an array-based immunoassay (Fig. 6).
This peptide length and surface density (10 nmol/spot) ensures the preservation of amyloid formation (which is conventionally limited to 6 residues), and differs from previous microarrays assays using a 15-mer with an offset of 3 (Perez-Gordo, M. et al. Mol Nutr Food Res 57, 1283-1290, (2013)).
The peptide membranes were assayed using the sera from ten patients who are allergic to fish (Figs. 1, 2). The IgE binding intensity was variable among the tested sera; however, it was possible to identify four major binding regions (I-IV) and two major groups of sera (S-I: S2, S3, S4, S7 and S8; S-II: S1, S5, S6, S12 and S13). […] Of these four regions, region I overlaps the sequence predicted as the cross-β sheet forming (adhesive) segment in helix A, whereas regions III and IV overlap the immunologically reactive sites located on the junctions between the AB and CD domains (residues 33-44) and between the CD and EF domains (residues 65-74) (Martinez, J. et al. Swiss Med Wkly 145, (2015)). Nevertheless, the reactivity of the Ca^2+-binding loop of the EF domain (residues 88-96) and of the C-terminal (residues 95-109) regions was not detected by these sera, as probed by both IgE and IgG4 binding (Fig. 1d) (Perez-Gordo, M. et al. Int Arch Allergy Imm 157, 31-40, (2012)). It merits comment that IgG4 reactivity, which is considered as a protective response in allergy, is largely detected in region IV for both sera groups (Perez-Gordo, M. et al. Int Arch Allergy Imm 157, 31-40, (2012)).
Peptide arrays (SPOT). Dodecapeptides spanning the whole sequence of Gad m 1, with an overlap of ten residues, were solid-phase synthesized and immobilized (≈10 nmol per spot) on an Amino-PEG500-UC540 sheet at the National Centre for Biotechnology (CNB-CSIC, Madrid). Before use, the membranes were rinsed with ethanol, washed three times with TBS (25 mM Tris-HCl, pH 7.5, containing 137 mM NaCl and 2.7 mM KCI), and incubated in TBS containing 1% BSA (w/v) and 2 mM EDTA for 1 h. The membranes were then probed for 2 h with sera from patients who are allergic to fish (1/10 dilution) and the anti-amyloid fibril OC antibody (AB2286 Merck Millipore, 1/2000 dilution), prepared in TBST (TBS containing 0.05% Tween-20) supplemented with 0.5% BSA (w/v) or with rGad m 1 chains (2.5 µM) in TBS. After extensive washes with TBST, a 30 min incubation with either horseradish peroxidase-labeled anti-human IgE (Abcam ab99806, 1/2000 dilution), anti-human IgG4 (Abcam ab99823, 1/4000 dilution), goat anti-rabbit IgG (Sigma, 1/5000 dilution) or anti-6X His tag® antibody (Abcam ab18184, dilution 1/1000) was performed. The signal was developed with the ECL-Western-blotting reagent (Bio-Rad) and detected with a ChemiDoc XRS instrument (Martinez, J. et al. Swiss Med Wkly 145, (2015)). When required, the membranes were regenerated by sequential incubation with TBS containing 8M urea, 1% SDS and 0.5% β-mercaptoethanol for 30 min at 55 °C and three times with acetic acid/ethanol/Milli-Q water (10:50:40). Regions were considered major allergenic epitopes when at least two overlapping peptides were involved. […]

The nature of data set [2]: Peptide array membranes probed with thioflavin T (ThT). Type of data set: physicochemical. On the procedure: The presence of amyloid folds was then assayed using the conformation-selective OC antibody, which detects oligomer and fibril assemblies produced during the protein fibrillization process and the amyloid probe thioflavin T (ThT) (Kayed, R. et al. Molecular neurodegeneration 2, 18, (2007)). […] Of these regions, peptides 2 and 41 overlap the adhesive segments in helix A and E, predicted by the ZipperDB algorithm (Goldschmidt, L., et al. Proceedings of the National Academy of Sciences of the United States of America 107, 3487-3492, (2010)), peptides 12-16 and 34 lie over the IgE-binding regions III and IV, peptide 24 contains part of the Ca^2+-binding site of domain CD, and peptide 49 corresponds to a previously described epitope groups (Perez-Gordo, M. et al. Mol Nutr Food Res 57, 1283-1290, (2013)) (Fig. 2 and Fig. 7). […] It must be noted that peptides containing the helix C sequence, which was predicted to be an adhesive segment, were not detected by either the OC or ThT binding assays.

In data set [3] the target is T1, Gad m 1 peptide 13 (12-mer overlapping synthetic peptide) (Atlantic cod).
T1 construct: Immobilized on the SPOT membrane, about 10 nmol per spot
T1 peptide: FDHKAFFTKVGL
The experiment in a line: SPOT peptide array incubated with rGad m 1 chains (2.5 µM), anti-6XHis detection.

In data set [4] the target is T2, Gad m 1 peptide 14 (12-mer overlapping synthetic peptide) (Atlantic cod).
T2 construct: Immobilized on the SPOT membrane, about 10 nmol per spot
T2 peptide: HKAFFTKVGLAA
The description is as above.

Data set [5] has as its target T3, Gad m 1 peptide 12 (12-mer overlapping synthetic peptide) (Atlantic cod).
T3 construct: Immobilized on the SPOT membrane, about 10 nmol per spot
T3 peptide: GSFDHKAFFTKV
Described as above.

Data set [6] has as its target T4, Gad m 1 peptide 15 (12-mer overlapping synthetic peptide) (Atlantic cod).
T4 construct: Immobilized on the SPOT membrane, about 10 nmol per spot
T4 peptide: AFFTKVGLAAKS
The data set is described as above.

On to “18: 12-mer overlapping synthetic peptide of the Gad m 1 sequence, SEQ ID NO: 18 (GLAAKSSADIKK) [compound 18]”, for which the IgE binding result in data set [1] was “variable recognition by the distinct sera”.

On to “7: 12-mer overlapping synthetic peptide of the Gad m 1 sequence, SEQ ID NO: 7 (TAALAACKAEGS) [compound 7]”, for which the IgE binding entry in data set [1] is “only recognized by the sera group S-II”.

For “19: 12-mer overlapping synthetic peptide of the Gad m 1 sequence, SEQ ID NO: 19 (AAKSSADIKKVF) [compound 19]”, the IgE binding result in data set [1] was “variable recognition by the distinct sera”.

As to “12: 12-mer overlapping synthetic peptide of the Gad m 1 sequence, SEQ ID NO: 12 (GSFDHKAFFTKV) [compound 12]”, the ThT fluorescence emission result in data set [2] is on record as “increased fluorescence emission”.

As to “6: 12-mer overlapping synthetic peptide of the Gad m 1 sequence, SEQ ID NO: 6 (DITAALAACKAE) [compound 6]”, in data set [1], the IgE binding result is “only recognized by the sera group S-II”.

As for “1: 12-mer overlapping synthetic peptide of the Gad m 1 sequence, SEQ ID NO: 1 (MAFAGILNDADI) [compound 1]”, the IgE binding result in data set [1] is given as “only recognized by the sera group S-II”.

B1: rGad m 1 wt, amyloid fibrils (formed in 5 mM EDTA) (other)
chain: AFAGILNDADITAALAACKAEGSFDHKAFFTKVGLAAKSSADIKKVFEIIDQDKSDFVEEDELKLFLQNFSAGARALSDAETKVFLKAGDSDGDGKIGVDEFGAMIKA
notes: Same chain as the wt monomer, in the amyloid state; also called wt-F; rGad m 1 amyloids; not shown: N-terminal histidine tag of the pET15b construct
Consider B1, for which the binding result in data set [3], in data set [4], in data set [5] and in data set [6] was “binds” each time.
